This is an account of results in patent US20210283163A1, “COMPOSITIONS AND METHODS FOR THE TREATMENT OF ACUTE AND CHRONIC PRURITIS” (Duke University, priority 2018, published 2021).

One series deals with T1, TRPV2 (Mus musculus, UniProt Q9WTR1).
T1 construct: expressed in transfected cells; host or cells: CHO cells (ATCC CRL-9096), plasmid pcDNA3.1-mTrpv2, a gift from Korea University
T1 sequence (Q9WTR1 1-756): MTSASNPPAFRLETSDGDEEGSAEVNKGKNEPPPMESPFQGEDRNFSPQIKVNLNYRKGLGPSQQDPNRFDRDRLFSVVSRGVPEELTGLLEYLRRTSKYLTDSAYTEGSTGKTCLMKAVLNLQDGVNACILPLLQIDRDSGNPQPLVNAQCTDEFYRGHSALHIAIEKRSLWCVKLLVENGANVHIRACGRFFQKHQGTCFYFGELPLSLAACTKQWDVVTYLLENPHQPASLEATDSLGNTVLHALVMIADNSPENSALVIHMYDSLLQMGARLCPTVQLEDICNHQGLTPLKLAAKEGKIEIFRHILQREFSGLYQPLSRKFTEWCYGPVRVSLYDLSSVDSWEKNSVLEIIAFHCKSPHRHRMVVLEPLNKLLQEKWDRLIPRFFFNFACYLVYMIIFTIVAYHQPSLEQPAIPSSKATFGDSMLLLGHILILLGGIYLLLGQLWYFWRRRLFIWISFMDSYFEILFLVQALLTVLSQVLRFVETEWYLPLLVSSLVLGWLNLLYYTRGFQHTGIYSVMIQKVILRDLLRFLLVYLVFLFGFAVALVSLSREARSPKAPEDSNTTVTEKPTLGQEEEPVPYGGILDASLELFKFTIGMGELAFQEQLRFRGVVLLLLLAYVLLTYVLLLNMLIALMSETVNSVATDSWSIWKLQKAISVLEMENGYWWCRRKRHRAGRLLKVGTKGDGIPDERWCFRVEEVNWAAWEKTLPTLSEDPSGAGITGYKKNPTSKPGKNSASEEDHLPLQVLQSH
Description: Whole-cell patch clamp in CHO cells transfected with mouse Trpv2 cDNA. The class given is cell-based. The note with it: miR-711 10 μM; cannabidiol 100 μM. The procedure: (§1) Constructs. The cDNAs of mouse pcDNA3.1-Trpa1, pcDNA3.1-Trpv1, pcDNA3.1-Trpv2, pcDNA3.1-Trpv3, and pcDNA3.1-Trpv4 were kindly provided Dr. Sun Work Hwang from Korea University. Mouse Trpa1 cDNA was subcloned into pCGN-HA backbone (Addgene) using In-Fusion HD Cloning Kit (Clontech Laboratories, CA). Q5 Site-Directed Mutagenesis Kit was used to generate mTrpa1 mutant (M1-M13) based on pCGN-mTrpa1.
(§2) Cell Culture and Transfection. CD4^+ Myla cell line was cultured in RPMI 1640 media (GIBCO), supplemented with 2 mM Glutamine (GIBCO), 100 U/mL IL-2 (Sigma), 100 U/mL IL-4 (Sigma), and 10% human AB serum (Sigma). HuT 102 cell line was cultured in RPMI 1640 supplemented with pyruvate, HEPES, and 10% (v/v) fetal bovine serum (HyClone). HEK293-hTRPA1 stable cell line was cultured in MEM (GIBCO) containing 2 mM Glutamine, 4 μg/mL Blasticidin, 10% FBS (v/v). B16 and CHO cells were cultured in high glucose (4.5 g/L) Dulbecco's Modified Eagle's Medium (GIBCO) containing 10% (v/v) fetal bovine serum (GIBCO). Culture media were supplemented with 50 units/mL of penicillin and 50 μg/mL streptomycin, and cultures were maintained with 5% CO2 in 37° C. incubator. Transfection (2 μg cDNA) was performed with Lipofectamine™ 2000 Reagent (Invitrogen) at 80% confluency and the transfected cells were cultured in the same media for 48 hr before electrophysiological and biochemical studies. […]
On the technique in general: The patch-clamp technique gives a direct electrical read-out from membranes.

Another series addresses T2, TRPV1 (Mus musculus, UniProt Q704Y3).
T2 construct: expressed in transfected cells; host or cells: CHO cells (ATCC CRL-9096), plasmid pcDNA3.1-mTrpv1, a gift from Korea University
Description: Whole-cell patch clamp in CHO cells transfected with mouse Trpv1 cDNA. Type of series: cell-based. The note with it: miR-711 10 μM; capsaicin 50 nM. The procedure:
as §1, §2

The subject of the next series is mice. In words: Evans blue extravasation, neurogenic inflammation in a hind paw. The class given is in vivo, mouse. The note with it: intraplantar, 10 μL; capsaicin 1 mM, AITC 5 mM, miR-711 1 mM. The procedure:
Evans Blue Extravasation. To examine neurogenic inflammation in a hind paw (Han et al., Neuron 2016, 92, 1279-1293), mice were anesthetized with 5% isoflurane. Evans blue (50 mg/kg body weight) was given intravenously 10 min before neurogenic irritant application. […] Evans blue was extracted from the tissues by incubation in 400 μL formamide at 37° C. for 48 hr. Evans blue was quantified by measuring the optical density of the formamide extract at 620 nm. Absorbance was normalized to per gram of tissue weight.

The next series concerns the target T3, TRPV3 (Mus musculus, UniProt Q8K424).
T3 construct: expressed in transfected cells; host or cells: CHO cells (ATCC CRL-9096), plasmid pcDNA3.1-mTrpv3, a gift from Korea University
T3 sequence (Q8K424 1-791): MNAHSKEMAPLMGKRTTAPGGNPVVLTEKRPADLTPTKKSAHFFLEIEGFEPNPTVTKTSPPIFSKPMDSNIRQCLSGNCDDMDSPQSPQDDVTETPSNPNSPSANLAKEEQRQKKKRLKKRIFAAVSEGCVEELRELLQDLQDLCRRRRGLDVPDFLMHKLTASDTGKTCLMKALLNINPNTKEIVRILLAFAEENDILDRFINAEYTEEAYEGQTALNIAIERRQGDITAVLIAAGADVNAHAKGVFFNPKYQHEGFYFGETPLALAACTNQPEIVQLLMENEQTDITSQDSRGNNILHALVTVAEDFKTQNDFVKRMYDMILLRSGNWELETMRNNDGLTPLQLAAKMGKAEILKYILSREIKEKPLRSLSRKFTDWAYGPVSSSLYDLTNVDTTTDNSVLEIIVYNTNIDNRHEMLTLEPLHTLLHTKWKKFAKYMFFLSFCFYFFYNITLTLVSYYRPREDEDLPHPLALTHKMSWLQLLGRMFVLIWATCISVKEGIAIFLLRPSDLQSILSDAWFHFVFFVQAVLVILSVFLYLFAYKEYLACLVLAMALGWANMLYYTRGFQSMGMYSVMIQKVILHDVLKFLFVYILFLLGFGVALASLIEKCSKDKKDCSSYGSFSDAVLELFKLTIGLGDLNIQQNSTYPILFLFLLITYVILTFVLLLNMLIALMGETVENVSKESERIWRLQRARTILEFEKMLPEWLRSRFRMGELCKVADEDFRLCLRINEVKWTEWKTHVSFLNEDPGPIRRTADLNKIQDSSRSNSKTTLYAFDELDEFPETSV
Description: Whole-cell patch clamp in CHO cells transfected with mouse Trpv3 cDNA. The note with it: miR-711 10 μM; carvacrol 300 μM. The class given is cell-based. The procedure:
as §1, §2

Another series deals with T4, mTRPA1 (Mus musculus, UniProt Q8BLA8).
T4 construct: endogenous in cells; host or cells: dissociated mouse DRG neurons in primary culture
T4 sequence (Q8BLA8 whole entry): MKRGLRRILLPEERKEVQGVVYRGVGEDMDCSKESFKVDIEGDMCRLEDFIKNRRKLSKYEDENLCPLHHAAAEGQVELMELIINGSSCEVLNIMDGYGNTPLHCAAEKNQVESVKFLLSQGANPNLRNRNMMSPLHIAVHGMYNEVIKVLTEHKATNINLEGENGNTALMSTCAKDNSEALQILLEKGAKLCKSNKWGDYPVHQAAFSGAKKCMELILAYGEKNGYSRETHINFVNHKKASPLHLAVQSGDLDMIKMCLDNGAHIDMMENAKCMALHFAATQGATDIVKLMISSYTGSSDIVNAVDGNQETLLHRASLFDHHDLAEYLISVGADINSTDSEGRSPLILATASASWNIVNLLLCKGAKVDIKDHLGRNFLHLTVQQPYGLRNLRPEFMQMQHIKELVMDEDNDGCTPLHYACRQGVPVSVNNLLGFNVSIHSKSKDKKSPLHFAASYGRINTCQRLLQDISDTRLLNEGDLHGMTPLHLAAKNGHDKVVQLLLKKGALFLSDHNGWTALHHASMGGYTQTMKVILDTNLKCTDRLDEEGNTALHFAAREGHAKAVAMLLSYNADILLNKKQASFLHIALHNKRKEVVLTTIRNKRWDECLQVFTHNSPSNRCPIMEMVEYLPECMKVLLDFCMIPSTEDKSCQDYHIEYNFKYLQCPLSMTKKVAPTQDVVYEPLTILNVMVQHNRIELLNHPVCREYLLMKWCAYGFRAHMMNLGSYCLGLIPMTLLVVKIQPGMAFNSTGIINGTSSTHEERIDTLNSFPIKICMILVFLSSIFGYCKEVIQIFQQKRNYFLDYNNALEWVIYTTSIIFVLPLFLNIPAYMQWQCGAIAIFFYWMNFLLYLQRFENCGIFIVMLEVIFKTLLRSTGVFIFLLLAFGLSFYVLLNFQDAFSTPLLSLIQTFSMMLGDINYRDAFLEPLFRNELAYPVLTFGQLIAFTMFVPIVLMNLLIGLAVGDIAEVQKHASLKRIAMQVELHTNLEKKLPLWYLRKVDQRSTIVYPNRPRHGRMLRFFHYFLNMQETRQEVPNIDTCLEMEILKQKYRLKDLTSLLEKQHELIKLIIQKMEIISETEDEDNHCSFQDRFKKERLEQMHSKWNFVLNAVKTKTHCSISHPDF
In words: Live cell labeling with Cy3-labeled oligos in cultured DRG neurons. Type of series: binding. The note with it: 10 μM Cy3-labeled oligo, 15 min. The method, then: Live Cell Labeling and Immunocytochemistry in Mouse DRG Neurons. Disassociated DRG neurons were plated on Poly-D-Lysine coated coverslips and cultured in Neurobasal medium supplemented with B27 for 24 hr. Cells were incubated with 10 μM Cy3-labeled miR-711 or miR-711 (m6) in extracellular cell solution for 15 min at 37° C. with 5% CO2. Then the coverslips were washed and incubated with TRPA1 primary antibody (Alomone lab, rabbit, 1:100) at 4° C. for 1 hr. The cells on coverslips were incubated with secondary antibody conjugated to FITC (1:100; Jackson ImmunoResearch, West Grove, Pa.) and examined under a Leica SP5 inverted confocal microscope.

T2 sequence (Q704Y3 whole entry): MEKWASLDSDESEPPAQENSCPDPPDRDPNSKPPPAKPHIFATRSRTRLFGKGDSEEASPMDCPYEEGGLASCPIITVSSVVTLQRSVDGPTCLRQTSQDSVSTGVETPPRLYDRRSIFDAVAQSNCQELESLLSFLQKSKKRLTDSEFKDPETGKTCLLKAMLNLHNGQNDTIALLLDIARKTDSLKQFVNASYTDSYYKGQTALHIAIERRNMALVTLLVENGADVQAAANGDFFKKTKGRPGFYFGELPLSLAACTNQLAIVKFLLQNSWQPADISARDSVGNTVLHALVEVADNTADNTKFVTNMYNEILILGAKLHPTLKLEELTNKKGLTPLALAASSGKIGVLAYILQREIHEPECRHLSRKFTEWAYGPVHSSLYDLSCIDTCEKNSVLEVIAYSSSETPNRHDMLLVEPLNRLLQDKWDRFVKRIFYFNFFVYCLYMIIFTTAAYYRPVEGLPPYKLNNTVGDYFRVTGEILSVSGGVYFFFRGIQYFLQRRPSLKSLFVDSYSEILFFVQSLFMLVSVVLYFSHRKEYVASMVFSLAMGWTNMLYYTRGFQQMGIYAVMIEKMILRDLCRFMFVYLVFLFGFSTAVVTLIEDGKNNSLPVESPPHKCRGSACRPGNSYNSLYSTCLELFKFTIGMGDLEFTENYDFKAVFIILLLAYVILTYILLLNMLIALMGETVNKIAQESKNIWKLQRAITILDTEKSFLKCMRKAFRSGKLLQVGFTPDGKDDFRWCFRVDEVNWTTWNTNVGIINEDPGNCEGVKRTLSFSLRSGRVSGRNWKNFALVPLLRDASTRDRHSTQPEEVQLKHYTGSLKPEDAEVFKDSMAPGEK

On to `C=C(C)[C@@H]1CCC(C)=C[C@H]1c1c(O)cc(CCCCC)cc1O` [cannabidiol], for which the inward currents entry on TRPV2 is given as “inward currents induced”. For the compound `COc1cc(CNC(=O)CCCC/C=C/C(C)C)ccc1O` [capsaicin], the inward currents entry on TRPV1 is “inward currents induced”. Moreover, in the series with mice, the “neurogenic inflammation in hind paws (Evans blue test)” value is “elicited robust neurogenic inflammation”. With `Cc1ccc(C(C)C)cc1O` [carvacrol], the inward currents result on TRPV3 is on record as “inward currents induced”. For the compound “Cy3-labeled miR-711: mmu-miR-711-cy3: gggacccggggagagauguaag-cy3 (SEQ ID NO: 20) (GGGACCCGGGGAGAGAUGUAAG; Cy3 label at 3' end, RNA chemistry otherwise not given here, further chemistry not given here)”, the “binding to TRPA1 on the cell surface of DRG neurons” value in the series with mTRPA1 is listed as “binds to TRPA1 on the cell surface”.
